Results taken from patent US8481553B2, “Antimetastatic compounds” (Brigham Young University, priority 2010, dated 2013).

The compounds below were run on MDCK cells (assay: HGF-induced epithelial-mesenchymal transition / migration of MDCK cells on transwell filters (crystal violet densitometry)). Details: Canis lupus familiaris, MDCK; test compound 10 μM, then HGF, 24 hours; percentage value like the untreated controls (unstimulated cells = maximal effect, HGF treated cells without compound = nil effect).
Type: cell-based
Protocol: MDCK cells were seeded at confluency into the wells of a transwell filter in DMEM with 10% fetal bovine serum. Cells were cultured for 24 hours. Test compounds, dissolved in DMSO, were added to each test well to a 10 μM final concentration, and then hepatocyte growth factor (HGF) was then added. The MDCK cells were cultured for 24 hours. Concurrently, controls treated with and without HGF and with no test compounds were also prepared.
After post-HGF addition culturing, transwell filters were prepared by repeated washing using ice cold PBS. The cells were then fixed with paraformaldehyde (3.7%) on ice for 15 minutes to the filters. After fixation, the transwell filters were washed repeatedly with PBS followed by staining with crystal violet for 15 minutes. The transwell filters were washed again with distilled water.
The upper surface of the transwell filters were swabbed using a cotton-tipped probe. The filters were photographed using a gel documentation system. Densitometry measurements were made on the test samples and compared with control samples.
`CCc1ccc(/C=C/c2ccc3cccc(O)c3n2)cc1` [Compound B-26] gave an inhibition at 10 µM of 81.1%. For `C=CCc1ccccc1OCC(=O)N/N=C/c1cccc(CC=C)c1O` [Compound 10], the inhibition at 10 µM was 44.8%. `COc1cccc2ccc(/C=C/c3cc(I)ccc3OC(C)=O)nc12` [Compound B-21] gave an inhibition at 10 µM of 72.5%. Compound `COc1c(OC(C)=O)ccc(/C=C/c2ccc3cccc(OC)c3n2)c1[N+](=O)[O-]` [Compound B-14] has an inhibition at 10 µM of 61.1%. `COc1cc(/C=C/c2ccc3cccc(O)c3n2)ccc1OCc1ccccc1` [Compound B-32] showed an inhibition at 10 µM of 91.8%. Compound `C=C(C)CSc1nc2sc3c(c2c(=O)[nH]1)CCCC3` [Compound A-14] has an inhibition at 10 µM of 100%. `CCOc1ccccc1OCC(=O)N/N=C/c1ccc(O)c(O)c1` [Compound 15] showed an inhibition at 10 µM of 72.8%. Work on `O=c1[nH]c(CCc2ccccc2)nc2sc3c(c12)CCCC3` [Compound A-1] yielded an inhibition at 10 µM of 96.9%. `Cc1noc(C)c1CSc1nc2[nH]ncc2c(=O)n1-c1ccccc1` [Compound A-10] showed an inhibition at 10 µM of 63.1%. `COc1cccc2ccc(/C=C/c3ccc(Br)cc3)nc12` [Compound B-11] showed an inhibition at 10 µM of 61.4%. `O=c1[nH]c(NCc2ccccc2)nc2sc3c(c12)CCCC3` [Compound A-2] showed an inhibition at 10 µM of 92.2%. In the case of `CCOc1cccc(/C=C/c2ccc3cccc(OC)c3n2)c1OC(C)=O` [Compound B-15], the inhibition at 10 µM was 53.1%. With `O=c1[nH]c(SC/C=C/c2ccccc2)nc2sc3c(c12)CCCC3` [Compound A-13] the inhibition at 10 µM was 90.5%. Compound `O=C(CSc1nc2sc3c(c2c(=O)n1Cc1ccccc1)CCCC3)N1CCCC1` [Compound A-9] has an inhibition at 10 µM of 50%. Work on `N#Cc1ccccc1OCC(=O)N/N=C/c1ccc(Cl)cc1` [Compound 7] yielded an inhibition at 10 µM of 86.8%. For `COc1cc(/C=C/c2ccc3cccc(OC)c3n2)cc(OC)c1OC` [Compound B-1], the inhibition at 10 µM was 96.8%. `COc1cc(Br)cc(/C=C/c2ccc3cccc(OC)c3n2)c1OC` [Compound B-23] was tested, and the inhibition at 10 µM was 72.8%. `COc1cc(/C=C/c2ccc3cccc(OC)c3n2)ccc1OC(C)=O` [Compound B-7] showed an inhibition at 10 µM greater than 5%. Work on `Oc1cccc2ccc(/C=C/c3ccc4c(c3)OCO4)nc12` [Compound B-30] yielded an inhibition at 10 µM of 94.4%. `N#Cc1ccccc1OCC(=O)N/N=C/c1ccc(Cl)cc1Cl` [Compound 8] gave an inhibition at 10 µM of 55.1%. `COc1cccc2ccc(/C=C/c3cccc([N+](=O)[O-])c3)nc12` [Compound B-20] gave an inhibition at 10 µM of 92.4%. `COc1cc(OC)c(OC)cc1/C=C/c1ccc2cccc(OC)c2n1` [Compound B-12] gave an inhibition at 10 µM of 50.6%. Compound `CCOc1cccc(/C=C/c2ccc3cccc(OC)c3n2)c1` [Compound B-10] has an inhibition at 10 µM of 76.1%. In the case of `CCOc1ccc(/C=C/c2ccc3cccc(OC)c3n2)cc1OC` [Compound B-5], the inhibition at 10 µM was greater than 5%. Work on `CCOc1cc(/C=C/c2ccc3cccc(OC(=O)CC)c3n2)cc(Br)c1OC` [Compound B-13] yielded an inhibition at 10 µM of 62.2%. Work on `O=c1[nH]c(SCc2ccccc2)nc2sc3c(c12)CCc1ccccc1-3` [Compound A-5] yielded an inhibition at 10 µM of 77.3%. In the case of `COc1cc(Cl)cc(/C=C/c2ccc3cccc(O)c3n2)c1OC` [Compound B-28], the inhibition at 10 µM was 100%. Compound `CCC(=O)Oc1c(OC)cc(/C=C/c2ccc3cccc(OC(=O)CC)c3n2)cc1OC` [Compound B-24] has an inhibition at 10 µM of 98.1%. `N#Cc1ccccc1OCC(=O)N/N=C/c1ccc([N+](=O)[O-])cc1` [Compound 11] gave an inhibition at 10 µM of 83.7%. For `N#Cc1ccccc1OCC(=O)N/N=C/c1ccccc1` [Compound 6], the inhibition at 10 µM was 44.2%. `COc1cccc(/C=C/c2ccc3cccc(O)c3n2)c1` [Compound B-34] showed an inhibition at 10 µM of 51.8%. For `COc1cc(/C=C/c2ccc3cccc(OCc4ccccc4)c3n2)ccc1OC(C)=O` [Compound B-18], the inhibition at 10 µM was 100%. `CCc1ccccc1OCC(=O)N/N=C/c1ccc(Br)cc1` [Compound 14] was tested, and the inhibition at 10 µM was 100%. With `C=CCc1ccccc1OCC(=O)N/N=C/c1ccc(C)cc1C` [Compound 1] the inhibition at 10 µM was 97%. `O=c1[nH]c(/C=C/c2ccccc2)nc2sc3c(c12)CCCC3` [Compound A-4] showed an inhibition at 10 µM of 90.8%. `COc1cc(/C=C/c2ccc3cccc(OCc4ccc(Cl)cc4)c3n2)cc(OC)c1OC(C)=O` [Compound B-25] showed an inhibition at 10 µM of 78.8%. `O=C1c2cccc3cccc(c23)C(=O)N1CCCc1nc2sc3c(c2c(=O)[nH]1)CCCC3` [Compound A-16] showed an inhibition at 10 µM of 70.1%. Compound `Cc1nc(CSc2nc3[nH]ncc3c(=O)n2-c2ccccc2)cs1` [Compound A-8] has an inhibition at 10 µM of 49.6%. `C=CCOc1ccccc1/C=N/NC(=O)COc1ccccc1CC=C` [Compound 9] showed an inhibition at 10 µM of 49.5%. For `COc1cc(/C=C/c2ccc3cccc(OC)c3n2)cc(Br)c1OC` [Compound B-9], the inhibition at 10 µM was greater than 5%. `COc1cc(Cl)cc(/C=C/c2ccc3cccc(OC)c3n2)c1OC(C)=O` [Compound B-22] was tested, and the inhibition at 10 µM was 98.1%. Compound `O=C(O)CCc1nc2sc3c(c2c(=O)[nH]1)CCCC3` [Compound A-12] has an inhibition at 10 µM of 100%. Compound `CC(C)Oc1ccc(/C=C/c2ccc3cccc(O)c3n2)cc1` [Compound B-31] has an inhibition at 10 µM of 100%. Compound `Oc1c(Br)cc(Cl)cc1/C=C/c1ccc2cccc(O)c2n1` [Compound B-27] has an inhibition at 10 µM of 100%.

Same assay, conditions: test compound 10 μM, then HGF, 24 hours; percentage value like the untreated controls (unstimulated cells = maximal effect, HGF treated cells without compound = nil effect)
For `O=C(COc1ccc(Br)cc1)N/N=C/c1ccc(Cl)cc1` [Compound 38], the “Assay Value” was less than 5%. In the case of `Cc1ccc(OCC(=O)N/N=C/c2ccccc2)cc1` [Compound 20], the “Assay Value” was less than 5%. With `Cc1cccc(OCC(=O)N/N=C/c2ccc(O)cc2)c1C` [Compound 23] the “Assay Value” was less than 5%. `O=C(CSc1nc2sc3c(c2c(=O)n1-c1ccccc1)CCCC3)c1cccs1` [Compound A-17] was tested, and the “Assay Value” was less than 5%. With `O=C(COc1cccc(Br)c1)N/N=C/c1ccc(Cl)cc1` [Compound 35] the “Assay Value” was less than 5%. In the case of `O=C(CSc1nc2sc3c(c2c(=O)n1Cc1ccccc1)CCCC3)N1CCCC1` [Compound A-21], the “Assay Value” was less than 5%. For `Cc1ccc(/C=N/NC(=O)COc2ccccc2Br)c(C)c1` [Compound 34], the “Assay Value” was less than 5%. In the case of `Cc1noc(C)c1CSc1nc2sc3c(c2c(=O)n1-c1ccccc1)CCC3` [Compound A-6], the “Assay Value” was 55.1%. For `CC1CCN(C(=O)CSc2nc3sc4c(c3c(=O)[nH]2)CCCC4)CC1` [Compound A-25], the “Assay Value” was less than 5%. `O=C(COc1ccccc1Br)N/N=C/c1ccccc1Br` [Compound 37] was tested, and the “Assay Value” was less than 5%. `COc1ccccc1/C=N/NC(=O)COc1ccccc1OC` [Compound 32] was tested, and the “Assay Value” was less than 5%. `COc1ccccc1/C=N/NC(=O)COc1c(C)cc(C)cc1C` [Compound 18] was tested, and the “Assay Value” was less than 5%. With `O=C(COc1ccc2ccccc2c1)N/N=C/c1ccccc1` [Compound 31] the “Assay Value” was less than 5%. In the case of `Cc1cc(C)c(/C=N/NC(=O)COc2ccccc2)c(C)c1` [Compound 21], the “Assay Value” was less than 5%. For `CC1CCCCN1C(=O)CSc1nc2sc3c(c2c(=O)n1-c1ccccc1)CCC3` (stereo not shown) [Compound A-22], the “Assay Value” was less than 5%. `O=C(COc1ccc2ccccc2c1)N/N=C/c1ccccc1Br` [Compound 30] was tested, and the “Assay Value” was less than 5%. `Cc1ccc(OCC(=O)N/N=C/c2ccc(C(=O)O)cc2)c(C)c1` [Compound 22] was tested, and the “Assay Value” was less than 5%. `CC1CCc2c(sc3nc(SCC(=O)N4CCOCC4)n(Cc4ccccc4)c(=O)c23)C1` (stereo not shown) [Compound A-20] was tested, and the “Assay Value” was less than 5%. With `Oc1cccc2ccc(/C=C/c3ccc(OC4CCCC4)cc3)nc12` [Compound B-16] the “Assay Value” was 100%. `Cc1ccc(/C=N/NC(=O)COc2cccc(Br)c2)c(C)c1` [Compound 36] was tested, and the “Assay Value” was less than 5%.
